Laboratory results reported in patent US11739074B2, “Ras inhibitors” (Revolution Medicines, Inc., priority 2019, dated 2023).
Like-named read-outs stand apart in the source and are kept apart here.

What was measured:
Assay type in all cases: cell-based
[1] = test system: AsPC-1 (K-Ras G12D); assay: Potency assay: pERK in AsPC-1 cells; conditions: Homo sapiens
[2] = test system: NCI-H358 (K-Ras G12C); assay: CellTiter-Glo cell viability assay, H358; conditions: Homo sapiens, NCI-H358, 120 h
In short: (§1)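 Percent-of-DMSO luminescence values (CellTiter-Glo, day 5, plates equilibrated ~30 minutes at ambient temperature) were curve-fitted using a 4-parameter logistic equation; compounds had been added straight into wells containing the cells.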

[3] = test system: AsPC-1 (K-Ras G12D); assay: CellTiter-Glo cell viability assay, AsPC-1; conditions: Homo sapiens, ASPC1, 120 h
In short: as §1

[4] = ASPC1, AsPC-1 cells, K-Ras G12D, read-out: pERK EC50 (AsPC-1 KRAS G12D)
[5] = NCI-H358, K-Ras G12C, 5-day treatment, read-out: H358 Cell Viability IC50
[6] = AsPC-1, K-Ras G12D, 5-day treatment, read-out: AsPC-1 Cell Viability IC50
[7] = ASPC1, read-out: pERK EC50 (AsPC-1 KRAS G12D)
[8] = read-out: H358 Cell Viability IC50, NCI-H358, K-Ras G12C, 5-day treatment
[9] = read-out: AsPC-1 Cell Viability IC50, AsPC-1, K-Ras G12D, 5-day treatment

SMILES	EC50 [1, 4]	IC50 [2, 5]	IC50 [3, 6]	EC50 [1, 7]	IC50 [2, 8]	IC50 [3, 9]	IC50 ([2]; read-out: H358 Cell Viability IC50)	IC50 ([3]; read-out: AsPC-1 Cell Viability IC50)
CCn1c(-c2cccnc2[C@H](C)OC)c2c3cc(ccc31)-c1cc(O)cc(c1)C[C@H](NC(=O)[C@H](C(C)C)N(C)C(=O)[C@@H]1CO[C@H](C)CN1C(=O)[C@@H]1CN1)C(=O)N1CCC[C@H](N1)C(=O)OCC(C)(C)C2 [Compound 249]	< 5000 nM	10 to 100 nM	10 to 100 nM					
CCn1c(-c2cccnc2[C@H](C)OC)c2c3cc(ccc31)-c1cc(O)cc(c1)C[C@H](NC(=O)[C@H](C(C)C)N(C)C(=O)C13CCC(CC1)N3C(=O)[C@H]1CN1)C(=O)N1CCC[C@H](N1)C(=O)OCC(C)(C)C2 [Compound 202]	< 5000 nM	100 to 1000 nM	1000 to 10000 nM					
CCn1c(-c2cccnc2[C@H](C)OC)c2c3cc(ccc31)-c1csc(n1)C[C@H](NC(=O)[C@H](C(C)C)N(C)C(=O)N(C)CCN(C)C(=O)[C@@H]1CN1)C(=O)N1CCC[C@H](N1)C(=O)OCC(C)(C)C2 [Compound 217]	< 5000 nM	10 to 100 nM	100 to 1000 nM					
CCn1c(-c2cccnc2[C@H](C)OC)c2c3cc(ccc31)-c1cc(O)cc(c1)C[C@H](NC(=O)[C@H](C(C)C)N(C)C(=O)CN(C)C(=O)[C@H]1CN1CCCOC)C(=O)N1CCC[C@H](N1)C(=O)OCC(C)(C)C2 (stereo partly drawn) [Compound 201]				< 5000 nM	< 10 nM	100 to 1000 nM		
CCn1c(-c2cnccc2COC)c2c3cc(ccc31)-c1cc(O)cc(c1)C[C@H](NC(=O)[C@H](C(C)C)N(C)C(=O)CN(C)C(=O)[C@@H]1N[C@@H]1C(=O)OC)C(=O)N1CCC[C@H](N1)C(=O)OCC(C)(C)C2 [Example 49, methyl (2S,3R)-3-((2-(((2S)-1-(((6^3S,4S)-1^1-ethyl-2^5-hydroxy-1^2-(4-(methoxymethyl)pyridin-3-yl)-10,10-dimethyl-5,7-dioxo-6^1,6^2,6^3,6^4,6^5,6^6-hexahydro-1^1H-8-oxa-1(5,3)-indola-6(1,3)-pyridazina-2(1,3)-benzenacycloundecaphane-4-yl)amino)-3-methyl-1-oxobutan-2-yl)(methyl)amino)-2-oxoethyl)(methyl)carbamoyl)aziridine-2-carboxylate]				< 5000 nM	1000 to 10000 nM	1000 to 10000 nM		
CCn1c(-c2cccnc2[C@H](C)OC)c2c3cc(ccc31)-c1cc(O)cc(c1)C[C@H](NC(=O)[C@H](C(C)C)N(C)C(=O)[C@@H]1CCN(C(=O)[C@H]3CN3)C1)C(=O)N1CCC[C@H](N1)C(=O)OCC(C)(C)C2 [Compound 186]	< 5000 nM	< 10 nM	100 to 1000 nM					
CCn1c(-c2cccnc2[C@H](C)OC)c2c3cc(ccc31)-c1cc(O)cc(c1)C[C@H](NC(=O)[C@H](C(C)C)N(C)C(=O)CN(C)C(=O)[C@H]1N[C@@H]1C(F)(F)F)C(=O)N1CCC[C@H](N1)C(=O)OCC(C)(C)C2 [Compound 261]				< 5000 nM	< 10 nM	100 to 1000 nM		
CC[C@@H]1N[C@@H]1C(=O)N(C)CC(=O)N(C)[C@H](C(=O)N[C@H]1Cc2cc(O)cc(c2)-c2ccc3c(c2)c(c(-c2cccnc2[C@H](C)OC)n3CC)CC(C)(C)COC(=O)[C@@H]2CCCN(N2)C1=O)C(C)C [Compound 263]				< 5000 nM	10 to 100 nM	100 to 1000 nM		
CCn1c(-c2cnccc2COC)c2c3cc(ccc31)-c1cc(O)cc(c1)C[C@H](NC(=O)[C@H](C(C)C)N(C)C(=O)CN(C)C(=O)[C@H]1[C@@H](C(=O)OC)N1[S@+]([O-])C(C)(C)C)C(=O)N1CCC[C@H](N1)C(=O)OCC(C)(C)C2 (stereo partly drawn) [Example 48, methyl (2S,3R)-1-((R)-tert-butylsulfinyl)-3-((2-(((2S)-1-(((6^3S,4S)-1^1-ethyl-2^5-hydroxy-1^2-(4-(methoxymethyl)pyridin-3-yl)-10,10-dimethyl-5,7-dioxo-6^1,6^2,6^3,6^4,6^5,6^6-hexahydro-1^1H-8-oxa-1(5,3)-indola-6(1,3)-pyridazina-2(1,3)-benzenacycloundecaphane-4-yl)amino)-3-methyl-1-oxobutan-2-yl)(methyl)amino)-2-oxoethyl)(methyl)carbamoyl)aziridine-2-carboxylate]				< 5000 nM			100 to 1000 nM	1000 to 10000 nM
CCn1c(-c2cccnc2[C@H](C)OC)c2c3cc(ccc31)-c1cc(O)cc(c1)C[C@H](NC(=O)[C@H](C(C)C)N(C)C(=O)CN(C)C(=O)[C@@H]1CN1C1COC1)C(=O)N1CCC[C@H](N1)C(=O)OCC(C)(C)C2 (stereo partly drawn) [Compound 276]				< 5000 nM	10 to 100 nM	1000 to 10000 nM		
CCn1c(-c2cccnc2[C@H](C)OC)c2c3cc(ccc31)-c1cc(O)cc(c1)C[C@H](NC(=O)[C@H](C(C)C)N(C)C(=O)CN(C)C(=O)[C@@H]1CN1CCCC#N)C(=O)N1CCC[C@H](N1)C(=O)OCC(C)(C)C2 (stereo partly drawn) [Compound 274]				< 5000 nM	< 10 nM	100 to 1000 nM		
CCn1c(-c2cccnc2[C@H](C)OC)c2c3cc(ccc31)-c1cc(O)cc(c1)C[C@H](NC(=O)[C@H](C(C)C)N(C)C(=O)[C@@]1(C)CCCN1C(=O)[C@H]1CN1)C(=O)N1CCC[C@H](N1)C(=O)OCC(C)(C)C2 [Compound 239]	< 5000 nM	10 to 100 nM	100 to 1000 nM					
CCn1c(-c2cccnc2[C@H](C)OC)c2c3cc(ccc31)-c1cc(O)cc(c1)C[C@H](NC(=O)[C@H](C(C)C)N(C)C(=O)CN(C)C(=O)[C@@H]1N[C@H]1C1COC1)C(=O)N1CCC[C@H](N1)C(=O)OCC(C)(C)C2 [Compound 283]				< 5000 nM	10 to 100 nM	100 to 1000 nM		
CCn1c(-c2cccnc2[C@H](C)OC)c2c3cc(ccc31)-c1cc(O)cc(c1)C[C@H](NC(=O)[C@H](C1CCCC1)N1CC[C@]3(CCN(C(=O)[C@@H]4N[C@@H]4C4CC4)C3)C1=O)C(=O)N1CCC[C@H](N1)C(=O)OCC(C)(C)C2 [Example 214, (2S)-2-cyclopentyl-2-((S)-7-((2R,3R)-3-cyclopropylaziridine-2-carbonyl)-1-oxo-2,7-diazaspiro[4.4]nonan-2-yl)-N-((6^3S,4S)-1^1-ethyl-2^5-hydroxy-1^2-(2-((S)-1-methoxyethyl)pyridin-3-yl)-10,10-dimethyl-5,7-dioxo-6^1,6^2,6^3,6^4,6^5,6^6-hexahydro-1^1H-8-oxa-1(5,3)-indola-6(1,3)-pyridazina-2(1,3)-benzenacycloundecaphane-4-yl)acetamide]	< 5000 nM	10 to 100 nM	10 to 100 nM					
CCn1c(-c2cccnc2[C@H](C)OC)c2c3cc(ccc31)-c1cc(cc(C(F)F)c1)C[C@H](NC(=O)[C@H](C1CCCC1)N(C)C(=O)CN(C)C(=O)[C@@H]1N[C@@H]1C1CC1)C(=O)N1CCC[C@H](N1)C(=O)OCC(C)(C)C2 [Compound 320]	< 5000 nM	100 to 1000 nM	100 to 1000 nM					
CCn1c(-c2cnccc2COC)c2c3cc(ccc31)-c1cc(O)cc(c1)C[C@H](NC(=O)[C@H](C(C)C)N(C)C(=O)[C@H]1CCN(C(=O)[C@H]3CN3)C1)C(=O)N1CCC[C@H](N1)C(=O)OCC(C)(C)C2 [Example 1, (3S)-1-((R)-aziridine-2-carbonyl)-N-((2S)-1-(((6^3S,4S)-1^1-ethyl-2^5-hydroxy-1^2-(4-(methoxymethyl)pyridin-3-yl)-10,10-dimethyl-5,7-dioxo-6^1,6^2,6^3,6^4,6^5,6^6-hexahydro-1^1H-8-oxa-1(5,3)-indola-6(1,3)-pyridazina-2(1,3)-benzenacycloundecaphane-4-yl)amino)-3-methyl-1-oxobutan-2-yl)-N-methylpyrrolidine-3-carboxamide]	< 5000 nM	< 10 nM	1000 to 10000 nM					
